Test results published in patent publication US8969583B2, “3-phenyl-5-ureidoisothiazole-4-carboximide and 3-amino-5-phenylisothiazole derivatives as kinase inhibitors” (Allergan, Inc., priority 2011, dated 2015).

How the values were obtained:
[1] = target: VEGFR2 (purified cytoplasmic domain KDR protein) (Homo sapiens (Human), UniProt P35968); assay: VEGFR2 Kinase Assay (biochemical KDR kinase assay, ELISA); conditions: 2.7 μM ATP, 15 minute incubation at 30° C.; read-out: VEGFR2 Enzyme Assay (IC50 nM)
VEGFR2 (purified cytoplasmic domain KDR protein), sequence (P35968 786-1356): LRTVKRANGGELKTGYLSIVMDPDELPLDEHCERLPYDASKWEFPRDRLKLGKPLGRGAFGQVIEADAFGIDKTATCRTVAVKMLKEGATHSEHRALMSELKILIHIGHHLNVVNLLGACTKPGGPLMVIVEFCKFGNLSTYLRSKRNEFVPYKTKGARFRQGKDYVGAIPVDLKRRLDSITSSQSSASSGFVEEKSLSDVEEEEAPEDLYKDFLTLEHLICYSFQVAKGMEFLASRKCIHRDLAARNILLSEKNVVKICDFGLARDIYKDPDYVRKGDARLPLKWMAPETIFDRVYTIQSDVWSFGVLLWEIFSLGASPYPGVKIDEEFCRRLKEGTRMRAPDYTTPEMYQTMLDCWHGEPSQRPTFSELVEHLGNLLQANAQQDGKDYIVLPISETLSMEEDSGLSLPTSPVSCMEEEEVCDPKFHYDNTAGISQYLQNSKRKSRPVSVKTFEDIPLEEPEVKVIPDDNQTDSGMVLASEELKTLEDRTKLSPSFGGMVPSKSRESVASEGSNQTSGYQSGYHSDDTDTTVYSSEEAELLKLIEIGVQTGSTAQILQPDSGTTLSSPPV
Method: Biochemical KDR kinase assays were performed in 96 well microtiter plates that were coated overnight with 75 μg/well of poly-Glu-Tyr (4:1) in 10 mM Phosphate Buffered Saline (PBS), pH 7.4. The coated plates were washed with 2 mls per well PBS+0.05% Tween-20 (PBS-T), blocked by incubation with PBS containing 1% BSA, then washed with 2 mls per well PBS-T prior to starting the reaction. […] Reactions were initiated by the addition 20 ul per well of kinase buffer containing 200-300 ng purified cytoplasmic domain KDR protein (BPS Bioscience, San Diego, Calif.). Following a 15 minute incubation at 30° C., the reactions were washed 2 mls per well PBS-T. 100 μl of a monoclonal anti-phosphotyrosine antibody-peroxidase conjugate diluted 1:10,000 in PBS-T was added to the wells for 30 minutes. Following a 2 mls per well wash with PBS-Tween-20, 100 μl of O-Phenylenediamine Dihydrochloride in phosphate-citrate buffer, containing urea hydrogen peroxide, was added to the wells for 7-10 minutes as a colorimetric substrate for the peroxidase. The reaction was terminated by the addition of 100 μl of 2.5NH2SO4 to each well and read using a microplate ELISA reader set at 492 nm. IC50 values for compound inhibition were calculated directly from graphs of optical density (arbitrary units) versus compound concentration following subtraction of blank values.

[2] = target: VEGFR1 (Homo sapiens (Human), UniProt P17948); assay: VEGFR1 Enzyme Assay; type: biochemical
VEGFR1, sequence (P17948 27-1338, species assumed): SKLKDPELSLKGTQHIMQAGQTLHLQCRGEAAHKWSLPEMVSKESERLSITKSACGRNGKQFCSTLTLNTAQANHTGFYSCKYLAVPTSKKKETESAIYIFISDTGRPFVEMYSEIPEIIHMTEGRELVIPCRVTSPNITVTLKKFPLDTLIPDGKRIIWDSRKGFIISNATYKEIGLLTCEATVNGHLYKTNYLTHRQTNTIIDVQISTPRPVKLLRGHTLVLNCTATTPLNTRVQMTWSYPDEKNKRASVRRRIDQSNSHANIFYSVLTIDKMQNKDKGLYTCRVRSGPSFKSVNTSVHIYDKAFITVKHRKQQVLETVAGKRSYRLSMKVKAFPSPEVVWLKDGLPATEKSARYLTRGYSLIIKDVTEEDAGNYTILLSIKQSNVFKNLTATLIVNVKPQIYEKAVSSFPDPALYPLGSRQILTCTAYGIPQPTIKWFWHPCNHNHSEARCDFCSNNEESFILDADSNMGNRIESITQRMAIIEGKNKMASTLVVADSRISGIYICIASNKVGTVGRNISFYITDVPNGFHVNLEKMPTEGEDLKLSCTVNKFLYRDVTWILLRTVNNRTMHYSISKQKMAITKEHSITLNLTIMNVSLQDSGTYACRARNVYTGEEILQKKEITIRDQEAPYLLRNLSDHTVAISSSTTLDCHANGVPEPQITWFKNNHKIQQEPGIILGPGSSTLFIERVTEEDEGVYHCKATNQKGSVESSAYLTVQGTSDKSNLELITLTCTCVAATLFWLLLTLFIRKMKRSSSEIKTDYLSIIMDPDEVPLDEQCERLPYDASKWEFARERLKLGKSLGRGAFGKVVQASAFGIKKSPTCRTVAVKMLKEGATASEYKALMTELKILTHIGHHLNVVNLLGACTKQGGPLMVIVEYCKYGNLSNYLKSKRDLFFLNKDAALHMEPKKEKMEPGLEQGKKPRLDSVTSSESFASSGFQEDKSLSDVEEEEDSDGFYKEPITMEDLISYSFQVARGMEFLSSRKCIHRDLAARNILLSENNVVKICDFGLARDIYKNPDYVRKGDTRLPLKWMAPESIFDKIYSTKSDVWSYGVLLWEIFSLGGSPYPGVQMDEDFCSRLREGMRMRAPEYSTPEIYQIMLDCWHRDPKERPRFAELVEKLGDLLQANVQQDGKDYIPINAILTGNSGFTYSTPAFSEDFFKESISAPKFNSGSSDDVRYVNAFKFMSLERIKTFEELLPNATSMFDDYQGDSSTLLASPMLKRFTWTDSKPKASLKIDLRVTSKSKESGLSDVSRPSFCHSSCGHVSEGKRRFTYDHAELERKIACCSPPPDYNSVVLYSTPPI

[3] = target: PDGFRβ (purified cytoplasmic domain PDGFR-b protein) (Homo sapiens (Human), UniProt P09619); assay: PDGFRβ Kinase Assay (biochemical, ELISA); conditions: 36 μM ATP, 60 minute incubation at 30° C.; read-out: PDGFRβ Enzyme Assay (IC50 nM)
PDGFRβ (purified cytoplasmic domain PDGFR-b protein), sequence (P09619 554-1106): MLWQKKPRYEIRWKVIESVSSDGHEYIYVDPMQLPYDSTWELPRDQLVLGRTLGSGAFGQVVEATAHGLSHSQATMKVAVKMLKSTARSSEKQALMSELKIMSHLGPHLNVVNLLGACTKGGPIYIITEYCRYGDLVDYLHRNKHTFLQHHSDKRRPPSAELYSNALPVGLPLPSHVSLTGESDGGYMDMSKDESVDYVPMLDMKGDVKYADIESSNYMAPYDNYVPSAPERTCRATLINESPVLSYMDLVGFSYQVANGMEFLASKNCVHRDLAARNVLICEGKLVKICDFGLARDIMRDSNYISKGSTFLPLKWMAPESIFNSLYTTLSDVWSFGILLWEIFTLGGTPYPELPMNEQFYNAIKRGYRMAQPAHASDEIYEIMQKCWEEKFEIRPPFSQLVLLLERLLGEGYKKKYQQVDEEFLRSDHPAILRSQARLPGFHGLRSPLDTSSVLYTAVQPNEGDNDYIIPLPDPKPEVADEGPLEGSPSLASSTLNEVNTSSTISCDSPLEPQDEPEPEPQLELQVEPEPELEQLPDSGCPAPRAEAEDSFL
Method: Biochemical PDGFRβ kinase assays were performed in 96 well microtiter plates that were coated overnight with 75 μg of poly-Glu-Tyr (4:1) in 10 mM Phosphate Buffered Saline (PBS), pH 7.4. The coated plates were washed with 2 mls per well PBS+0.05% Tween-20 (PBS-T), blocked by incubation with PBS containing 1% BSA, then washed with 2 mls per well PBS-T prior to starting the reaction. Reactions were carried out in 100 μL reaction volumes containing 36 μM ATP in kinase buffer (50 mM Hepes buffer pH 7.4, 20 mM MgCl2, 0.1 mM MnCl2 and 0.2 mM Na3VO4). Test compounds were reconstituted in 100% DMSO and added to the reaction to give a final DMSO concentration of 5%. Reactions were initiated by the addition 20 ul per well of kinase buffer containing 200-300 ng purified cytoplasmic domain PDGFR-b protein (Millipore). Following a 60 minute incubation at 30° C., the reactions were washed 2 mls per well PBS-T. 100 μl of a monoclonal anti-phosphotyrosine antibody-peroxidase conjugate diluted 1:10,000 in PBS-T was added to the wells for 30 minutes. Following a 2 mls per well wash with PBS-Tween-20, 100 μl of O-Phenylenediamine Dihydrochloride in phosphate-citrate buffer, containing urea hydrogen peroxide, was added to the wells for 7-10 minutes as a colorimetric substrate for the peroxidase. The reaction was terminated by the addition of 100 μl of 2.5NH2SO4 to each well and read using a microplate ELISA reader set at 492 nm. IC50 values for compound inhibition were calculated directly from graphs of optical density (arbitrary units) versus compound concentration following subtraction of blank values.

| IC50 [1] [nM] | IC50 [2] [nM] | IC50 [3] [nM] | Structure (SMILES) |
| --- | --- | --- | --- |
|  |  | 10 | Cc1cccc(NC(=O)Nc2ccc(-c3nsc(NC(=O)NCCCN4CCOCC4)c3C(N)=O)cc2)c1 [Example 5, 3-[4-({[(3-methylphenyl)amino]carbonyl}amino)phenyl]-5-({[(3-morpholin-4-ylpropyl)amino]carbonyl}amino)isothiazole-4-carboxamide] |
|  |  | 12 | Cc1ccc(NC(=O)Nc2ccc(-c3nsc(NC(=O)NCCCN4CCOCC4)c3C(N)=O)cc2)cc1 [Example 7, 3-[4-({[(4-methylphenyl)amino]carbonyl}amino)phenyl]-5-({[(3-morpholin-4-ylpropyl)amino]carbonyl}amino)isothiazole-4-carboxamide] |
|  | > 1000 | > 10000 | COCCCNC(=O)Nc1snc(-c2ccc(N)cc2)c1C(N)=O [Example 9, 3-(4-aminophenyl)-5-({[(3-methoxypropyl)amino]carbonyl}amino)isothiazole-4-carboxamide] |
|  | > 1000 | > 1000 | NC(=O)c1c(-c2ccc(NC(=O)c3cccc(C(F)(F)F)c3)cc2)nsc1NC(=O)NCCCN1CCOCC1 [Example 11, 5-({[(3-morpholin-4-ylpropyl)amino]carbonyl}amino)-3-(4-{[3-(trifluoromethyl)benzoyl]amino}phenyl)isothiazole-4-carboxamide] |
|  |  | 13 | Cc1ccc(NC(=O)Nc2ccc(-c3nsc(NC(=O)NCCCO)c3C(N)=O)cc2)cc1 [Example 56, 5-({[(3-Hydroxypropyl)amino]carbonyl}amino)-3-[4-({[(4-methylphenyl)amino]carbonyl}amino)phenyl]isothiazole-4-carboxamide] |
|  |  | 60 | Cc1ccc(NC(=O)Nc2ccc(-c3nsc(N)c3C(N)=O)cc2)cc1 [Example 59, 5-Amino-3-[4-({[(4-methylphenyl)amino]carbonyl}amino)phenyl]isothiazole-4-carboxamide] |
| > 10000 |  |  | NC(=O)c1c(-c2cccc([N+](=O)[O-])c2)nsc1N [Example 61, 5-Amino-3-(3-nitrophenyl)isothiazole-4-carboxamide] |
| > 1000 |  |  | NC(=O)c1c(-c2ccc(N)cc2)nsc1NC(=O)NCCCN1CCCC1 [Example 67, 3-(4-Aminophenyl)-5-({[(3-pyrrolidin-1-ylpropyl)amino]carbonyl}amino)isothiazole-4-carboxamide] |
|  |  | 48 | Cc1ccc(F)c(NC(=O)Nc2ccc(-c3snc(N)c3C(N)=O)cc2)c1 [Example 69, 3-Amino-5-[4-({[(2-fluoro-5-methylphenyl)amino]carbonyl}amino)phenyl]isothiazole-4-carboxamide] |

Further lines, the molecule ahead of its results:

| Structure (SMILES) | IC50 [1] [nM] | IC50 [2] [nM] | IC50 [3] [nM] |
| --- | --- | --- | --- |
| NC(=O)c1c(-c2ccc([N+](=O)[O-])cc2)nsc1NC(=O)NCCCN1CCOCC1 [Example 1, 5-({[(3-morpholin-4-ylpropyl)amino]carbonyl}amino)-3-(4-nitrophenyl)isothiazole-4-carboxamide] | > 10000 | > 10000 | > 10000 |
| NC(=O)c1c(-c2ccc(N)cc2)nsc1NC(=O)NCCCN1CCOCC1 [Example 2, 3-(4-aminophenyl)-5-({[(3-morpholin-4-ylpropyl)amino]carbonyl}amino)isothiazole-4-carboxamide] |  |  | > 10000 |
| NC(=O)c1c(-c2ccc(NC(=O)Nc3ccccc3)cc2)nsc1NC(=O)NCCCN1CCOCC1 [Example 3, 3-{4-[(anilinocarbonyl)amino]phenyl}-5-({[(3-morpholin-4-ylpropyl)amino]carbonyl}amino)isothiazole-4-carboxamide] |  |  | 21 |
| Cc1ccc(F)c(NC(=O)Nc2ccc(-c3nsc(NC(=O)NCCCN4CCOCC4)c3C(N)=O)cc2)c1 [Example 4, 3-[4-({[(2-fluoro-5-methylphenyl)amino]carbonyl}amino)phenyl]-5-({[(3-morpholin-4-ylpropyl)amino]carbonyl}amino)isothiazole-4-carboxamide] |  |  | 47 |
| NC(=O)c1c(-c2ccc(NC(=O)Nc3cc(C(F)(F)F)ccc3F)cc2)nsc1NC(=O)NCCCN1CCOCC1 [Example 6, 3-{4-[({[2-fluoro-5-(trifluoromethyl)phenyl]amino}carbonyl)amino]phenyl}-5-({[(3-morpholin-4-ylpropyl)amino]carbonyl}amino)isothiazole-4-carboxamide] |  |  | 24 |
| NC(=O)c1c(-c2ccc([N+](=O)[O-])cc2)nsc1NC(=O)N1CCCC1=O [Example 45, 3-(4-Nitro-phenyl)-5-[(2-oxo-pyrrolidine-1-carbonyl)-amino]-isothiazole-4-carboxylic acid amide] | > 10000 |  |  |
| Cc1ccc(NC(=O)Nc2ccc(-c3nsc(NC(=O)NCCCC(=O)O)c3C(N)=O)cc2)cc1 [Example 48, 4-{[({4-(Aminocarbonyl)-3-[4-({[(4-methylphenyl)amino]carbonyl}amino)phenyl]isothiazol-5-yl}amino)carbonyl]amino}butanoic acid] |  |  | 10 |
| NC(=O)c1c(-c2ccc(N)cc2)nsc1N [Example 58, 5-Amino-3-(4-aminophenyl)isothiazole-4-carboxamide] | > 10000 |  |  |
| Cc1ccc(F)c(NC(=O)Nc2ccc(-c3nsc(N)c3C(N)=O)cc2)c1 [Example 60, 5-Amino-3-[4-({[(2-fluoro-5-methylphenyl)amino]carbonyl}amino)phenyl]isothiazole-4-carboxamide] |  |  | 70 |
| NC(=O)c1c(-c2cccc(N)c2)nsc1N [Example 62, 5-Amino-3-(3-aminophenyl)isothiazole-4-carboxamide] | > 10000 |  |  |
| NC(=O)c1c(-c2cccc(NC(=O)c3cccc(C(F)(F)F)c3)c2)nsc1N [Example 64, 5-Amino-3-(3-{[3-(trifluoromethyl)benzoyl]amino}phenyl)isothiazole-4-carboxamide] |  |  | 844 |
| NC(=O)c1c(-c2cccc(NC(=O)Nc3ccccc3)c2)nsc1N [Example 65, 5-Amino-3-{3-[(anilinocarbonyl)amino]phenyl}isothiazole-4-carboxamide] | > 10000 |  | > 1000 |
| Cc1ccc(NC(=O)Nc2ccc(-c3nsc(NC(=O)NCCCN4CCCC4)c3C(N)=O)cc2)cc1 [Example 68, 3-[4-({[(4-Methylphenyl)amino]carbonyl}amino)phenyl]-5-({[(3-pyrrolidin-1-ylpropyl)amino]carbonyl}amino)isothiazole-4-carboxamide] |  |  | 12 |
| Cc1ccc(F)c(NC(=O)Nc2ccc(-c3snc(NCCCN4CCOCC4)c3C(N)=O)cc2)c1 [Example 70, 5-[4-({[(2-Fluoro-5-methylphenyl)amino]carbonyl}amino)phenyl]-3-[(3-morpholin-4-ylpropyl)amino]isothiazole-4-carboxamide] |  |  | 70 |
